Laboratory results: the supplement of paper PMC10307832

What was measured:
Test in all cases: relative viability (nuclei count vs DMSO), 5 days (fraction); higher = more cells survive
QS11 + Trametinib = compound: C1CC2=C(C1)C=C(C=C2)OC3=NC(=C4C(=N3)N(C=N4)CC5=CC=C(C=C5)C6=CC=CC=C6)N[C@@H](CC7=CC=CC=C7)CO [QS11] + CC(=O)Nc1cccc(-n2c(=O)n(C3CC3)c(=O)c3c(Nc4ccc(I)cc4F)n(C)c(=O)c(C)c32)c1 [Trametinib] (partner 0.02 µM)
In short: (§1)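 The day after seeding in 1536-well plates, lung cancer cell lines were treated by pin tool with a single drug, or with a fixed anchor-drug dose together with five library-drug doses (not always all listed) in √10 steps. After 5 days, a combined fix-and-stain solution (final 0.05% Triton X-100, 1% formaldehyde, 1 ug/ml Hoechst) was added. Nuclei counted on 4× images gave relative viability as treated counts over vehicle counts, reported as the median of duplicate plates.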

QS11 + Pemetrexed = compound: C1CC2=C(C1)C=C(C=C2)OC3=NC(=C4C(=N3)N(C=N4)CC5=CC=C(C=C5)C6=CC=CC=C6)N[C@@H](CC7=CC=CC=C7)CO [QS11] + Nc1nc2[nH]cc(CCc3ccc(C(=O)N[C@@H](CCC(=O)O)C(=O)O)cc3)c2c(=O)[nH]1 [Pemetrexed] (partner 0.2 µM)
In short: as §1

AZ628 + Luminespib = compound: CC1=C(C=C(C=C1)NC(=O)C2=CC(=CC=C2)C(C)(C)C#N)NC3=CC4=C(C=C3)N=CN(C4=O)C [AZ628] + CCNC(=O)c1noc(-c2cc(C(C)C)c(O)cc2O)c1-c1ccc(CN2CCOCC2)cc1 [Luminespib] (partner 0.01 µM)
In short: as §1

AZ628 + AZD7762 = compound: CC1=C(C=C(C=C1)NC(=O)C2=CC(=CC=C2)C(C)(C)C#N)NC3=CC4=C(C=C3)N=CN(C4=O)C [AZ628] + NC(=O)Nc1cc(-c2cccc(F)c2)sc1C(=O)N[C@H]1CCCNC1 [AZD7762] (partner 0.2 µM)
In short: as §1

| Cell Line | relative viability (QS11 + Trametinib; first compound 0.08 µM) | relative viability (QS11 + Trametinib; first compound 0.253 µM) | relative viability (QS11 + Trametinib; first compound 0.8 µM) | relative viability (QS11 + Trametinib; first compound 2.53 µM) | relative viability (QS11 + Trametinib; first compound 8 µM) | relative viability (QS11 + Pemetrexed; first compound 0.08 µM) | relative viability (QS11 + Pemetrexed; first compound 0.253 µM) | relative viability (QS11 + Pemetrexed; first compound 0.8 µM) | relative viability (QS11 + Pemetrexed; first compound 2.53 µM) | relative viability (QS11 + Pemetrexed; first compound 8 µM) | relative viability (AZ628 + Luminespib; first compound 0.08 µM) | relative viability (AZ628 + Luminespib; first compound 0.253 µM) | relative viability (AZ628 + Luminespib; first compound 0.8 µM) | relative viability (AZ628 + Luminespib; first compound 2.53 µM) | relative viability (AZ628 + Luminespib; first compound 8 µM) | relative viability (AZ628 + AZD7762; first compound 0.08 µM) | relative viability (AZ628 + AZD7762; first compound 0.253 µM) | relative viability (AZ628 + AZD7762; first compound 0.8 µM) | relative viability (AZ628 + AZD7762; first compound 2.53 µM) | relative viability (AZ628 + AZD7762; first compound 8 µM) |
| --- | --- | --- | --- | --- | --- | --- | --- | --- | --- | --- | --- | --- | --- | --- | --- | --- | --- | --- | --- | --- |
| NCI-H2087 | 0.243 | 0.219 | 0.211 | 0.22 | 0.205 | 0.646 | 0.646 | 0.675 | 0.692 | 0.757 | 0.132 | 0.155 | 0.159 | 0.193 | 0.152 | 1.04 | 1.04 | 1.03 | 1.13 | 0.298 |
| NCI-H2126 | 0.588 | 0.562 | 0.567 | 0.596 | 0.508 | 0.623 | 0.681 | 0.604 | 0.565 | 0.59 | 1 | 0.902 | 0.968 | 0.933 | 0.97 | 1.08 | 0.945 | 0.775 | 1.01 | 0.984 |
| NCI-H2170 | 0.93 | 0.962 | 0.728 | 1.01 | 1.04 | 0.271 | 0.288 | 0.243 | 0.274 | 0.287 | 0.802 | 0.725 | 0.789 | 0.752 | 0.731 | 0.882 | 0.793 | 0.832 | 1.02 | 0.743 |
| NCI-H2342 | 0.775 | 0.769 | 0.838 | 0.88 | 0.743 | 0.77 | 0.829 | 0.809 | 0.797 | 0.795 | 0.763 | 0.865 | 0.736 | 0.821 | 0.825 | 0.489 | 0.44 | 0.623 | 0.53 | 0.625 |
| NCI-H2347 | 0.27 | 0.292 | 0.273 | 0.313 | 0.286 | 0.455 | 0.426 | 0.396 | 0.458 | 0.446 | 0.287 | 0.239 | 0.301 | 0.255 | 0.218 | 0.684 | 0.575 | 0.709 | 0.566 | 0.34 |
| NCI-H2405 | 0.628 | 0.585 | 0.731 | 0.719 | 0.79 | 1.01 | 1.02 | 0.974 | 1.05 | 1.05 | 0.366 | 0.425 | 0.411 | 0.365 | 0.355 | 0.54 | 0.387 | 0.498 | 0.419 | 0.458 |
| NCI-H3122 | 0.213 | 0.239 |  | 0.253 | 0.343 | 0.2 | 0.214 |  | 0.25 | 0.296 | 0.0933 | 0.0771 | 0.11 | 0.0973 | 0.0958 | 0.953 | 0.782 | 0.578 | 0.626 | 0.361 |
| PC-3 [JPC-3] |  | 0.712 | 0.674 | 0.641 | 0.568 |  | 0.951 | 1.08 | 0.935 | 1.17 | 0.628 | 0.67 | 0.866 | 0.675 | 0.71 | 0.929 | 0.754 | 0.808 | 0.83 | 0.727 |
| PC-14 |  | 0.66 | 0.698 | 0.717 | 0.634 |  | 0.145 | 0.14 | 0.178 | 0.155 | 0.197 | 0.132 | 0.146 | 0.167 | 0.202 | 0.48 | 0.324 | 0.338 | 0.316 | 0.296 |
| RERF-LC-KJ | 0.825 | 0.902 | 0.843 | 0.865 | 0.76 | 0.51 | 0.461 | 0.443 | 0.482 | 0.439 | 1.21 | 1.23 | 1.43 | 1.08 | 1.19 | 0.948 | 0.901 | 1.56 | 1.03 | 0.87 |
| SW 900 | 0.797 | 0.724 | 0.724 | 0.721 | 0.453 | 0.384 | 0.456 | 0.465 | 0.503 | 0.514 | 0.18 | 0.188 | 0.156 | 0.152 | 0.176 | 0.552 | 0.552 | 0.494 | 0.634 | 0.378 |
